Experimental data as given in patent US20240116946A1 (Gilead Sciences, Inc., priority 2022, published 2024).
Read-outs that look alike come from different tables or passages of the source.

Legend:
[1] = target: recombinant SARS-CoV-2 Main protease (Mpro) (Severe acute respiratory syndrome coronavirus 2 (2019-nCoV) (SARS-CoV-2), UniProt P0DTD1); test: Cov Mpro Biochemical IC50 Assay; conditions: read-out: MPro IC50
SARS-CoV-2-NLuc = test: microbe, parasite or virus in culture; type: cell-based, SARS Coronavirus 2
[2] = recombinant SARS-CoV-2 Mpro 7.5 nM, fluorogenic peptide substrate 40 μM
[3] = Severe acute respiratory syndrome coronavirus, 48 h, read-out: MPro EC50
[4] = recombinant SARS-CoV-2 Mpro, fluorogenic peptide substrate
[5] = Severe acute respiratory syndrome coronavirus, 48 h; read-out: MPro EC50

| Compound | IC50 [1, 2] | EC50 (SARS-CoV-2-NLuc; [3]) | EC50 (SARS-CoV-2-NLuc; read-out: MPro EC50) | IC50 [1, 4] | EC50 (SARS-CoV-2-NLuc; [5]) |
| --- | --- | --- | --- | --- | --- |
| COc1cc(-c2cc3c(s2)c(=O)n(-c2cncc4nc(-c5coc(C)n5)n(C)c24)c(=O)n3CCC#N)c(Cl)cc1F [Example 757] | 11.4 nM | 40.3 nM |  |  |  |
| COc1cc(-c2cc3c(s2)c(=O)n(-c2cncc4cnn(C)c24)c(=O)n3CCCC#N)c(Cl)cc1F [Example 658] | 14.4 nM | 22.8 nM |  |  |  |
| COc1cnc(Cl)c(-c2cc3c(s2)c(=O)n(-c2cncc4cnn(C)c24)c(=O)n3CCC#N)c1 (single isomer, unassigned) [Example 1091, 3-(6-(2-chloro-5-methoxypyridin-3-yl)-3-(1-methyl-1H-pyrazolo[4,3-c]pyridin-7-yl)-2,4-dioxo-3,4-dihydrothieno[3,2-d]pyrimidin-1(2H)-yl)propanenitrile] | 141 nM |  | 451 nM |  |  |
| COc1cc(-c2cc3c(s2)c(=O)n(-c2cncc4ccncc24)c(=O)n3CCC#N)c(Cl)cc1F (single isomer, unassigned) [Example 1098, 3-[6-(2-chloro-4-fluoro-5-methoxy-phenyl)-3-(2,6-naphthyridin-4-yl)-2,4-dioxo-thieno[3,2-d]pyrimidin-1-yl]propanenitrile] | 3.81 nM |  | 1.91 nM |  |  |
| N#CCn1c(=O)n(-c2cncc3cccnc23)c(=O)c2sc(-c3ccccc3Cl)cc21 [Example 710] | < 4.33 nM | 22.6 nM |  |  |  |
| CNC(=O)[C@H]1C[C@@H]1c1cncc(-n2c(=O)[nH]c3cc(-c4ccccc4Cl)sc3c2=O)c1 [Example 383] |  | 286 nM |  | 5.23 nM |  |
| COc1ccc(Cl)c(-c2cc3[nH]c(=O)n(-c4cncc5scc(C)c45)c(=O)c3s2)c1 (single isomer, unassigned) [Example 1053, 6-(2-chloro-5-methoxyphenyl)-3-(3-methylthieno[2,3-c]pyridin-4-yl)thieno[3,2-d]pyrimidine-2,4(1H,3H)-dione] | 83.3 nM |  | 48.5 nM |  |  |
| CN1C(=O)CCc2cc(-c3cccc(Cl)c3-c3ccc4c(=O)n(-c5cncc6ccccc56)c(=O)[nH]c4c3)ccc21 [Example 307] |  | 10.4 nM |  | 16.9 nM |  |
| O=c1[nH]c2cc(-c3ccccc3Cl)sc2c(=O)n1-c1cncc2c1CCCC2 [Example 108] |  | 71.4 nM |  | 9.23 nM |  |
| COc1cc(-c2cc3c(s2)c(=O)n(-c2cc(C)cnc2F)c(=O)n3CCC#N)c(Cl)cc1F [Example 770] | 6.12 nM |  |  |  | 4.8 nM |
| Cn1ncc2cncc(-n3c(=O)c4sc(-c5c(Cl)cccc5-c5cncc(C#N)c5)cc4n(CCC#N)c3=O)c21 [Example 934] | 8.3 nM | 49 nM |  |  |  |
| COc1cc(-c2cc3c(s2)c(=O)n(-c2cncc4ccncc24)c(=O)n3CCC#N)c(Cl)cc1F [Example 923, 3-[6-(2-chloro-4-fluoro-5-methoxy-phenyl)-3-(2,6-naphthyridin-4-yl)-2,4-dioxo-thieno[3,2-d]pyrimidin-1-yl]propanenitrile] | 4.3 nM | 2 nM |  |  |  |
| COc1cc(-c2cc3c(s2)c(=O)n(-c2cncc4cnn(C)c24)c(=O)n3CCC#N)c(Cl)cc1F [Example 642, 3-[6-(2-chloro-4-fluoro-5-methoxy-phenyl)-3-(1-methylpyrazolo[4,3-c]pyridin-7-yl)-2,4-dioxo-thieno[3,2-d]pyrimidin-1-yl]propanenitrile] | 8.54 nM |  |  |  | 4.59 nM |
| NC(=O)c1ccccc1-c1cc2[nH]c(=O)n(-c3cncc4ccccc34)c(=O)c2s1 [Example 3] |  | > 50000 nM |  | 312 nM |  |
| O=c1[nH]c2cc(-c3c(Cl)cccc3-c3cc4n(n3)CCC4)ccc2c(=O)n1-c1cncc2ccccc12 [Example 246] |  | 18.4 nM |  | 21 nM |  |
| O=c1[nH]c2cc(-c3ccccc3Cl)sc2c(=O)n1-c1cncc2cc(Cl)ccc12 [Example 590] | 194 nM | 299 nM |  |  |  |
| Cc1cc(-c2cccc(Cl)c2-c2ccc3c(=O)n(-c4cncc5ccccc45)c(=O)[nH]c3c2)cn2ncnc12 [Example 102] |  | 16.1 nM |  | 15.7 nM |  |
| Cc1ncc(-c2cccc(Cl)c2-c2cc3[nH]c(=O)n(-c4cncc5ccccc45)c(=O)c3s2)n1C [Example 521] | 14.9 nM | 129 nM |  |  |  |
| Cn1nnc2cncc(-n3c(=O)c4sc(-c5cc(Cl)ccc5C#N)cc4n(CCC#N)c3=O)c21 [Example 886] | 36.1 nM | 144 nM |  |  |  |
| Cc1nnc(-c2cccc(-c3ccc4c(=O)n(-c5cncc6ccccc56)c(=O)[nH]c4c3)c2)o1 [Example 39] |  |  |  | 7750 nM | 23400 nM |
| O=c1[nH]c2cc(-c3cc(Cl)ccc3Cl)ccc2c(=O)n1-c1cncc2ccccc12 [Example 60] |  | 227 nM |  | 192 nM |  |
| COc1cc(-c2cc3[nH]c(=O)n(-c4cncc5cnn(C)c45)c(=O)c3s2)c(Cl)cc1F (single isomer, unassigned) [Example 640, 6-(2-chloro-4-fluoro-5-methoxy-phenyl)-3-(1-methylpyrazolo[4,3-c]pyridin-7-yl)-1H-thieno[3,2-d]pyrimidine-2,4-dione] | < 4.26 nM |  | 3.48 nM |  |  |

| Compound | IC50 [1, 2] | EC50 (SARS-CoV-2-NLuc; [3]) | EC50 (SARS-CoV-2-NLuc; read-out: MPro EC50) | IC50 [1, 4] | EC50 (SARS-CoV-2-NLuc; [5]) |
| --- | --- | --- | --- | --- | --- |
| N#CCCn1c(=O)n(-c2cccnc2)c(=O)c2sc(-c3ccccc3Cl)cc21 [Example 804] | 14 nM |  |  |  | 45 nM |
| Cn1c(C(F)(F)F)nc2cncc(-n3c(=O)c4sc(-c5ccccc5C#N)cc4n(CCC#N)c3=O)c21 [Example 858] | 263 nM | 741 nM |  |  |  |
| O=C1Nc2ccc(-c3cccc(Cl)c3-c3ccc4c(=O)n(-c5cncc6ccccc56)c(=O)[nH]c4c3)cc2C1(F)F [Example 173] |  | 650 nM |  | 380 nM |  |
| Cc1cncc(-n2c(=O)c3sc(-c4ccccc4Cl)cc3n(CCC#N)c2=O)c1 [Example 984] | 3.12 nM |  |  |  | 3.69 nM |
| COc1cc(C#N)c(-c2cc3[nH]c(=O)n(-c4cncc5ccccc45)c(=O)c3s2)cc1OC [Example 544] | 16.8 nM | 202 nM |  |  |  |
| COc1cnc(C#N)c(-c2cc3c(s2)c(=O)n(-c2cncc4ccccc24)c(=O)n3CCC#N)c1 [Example 837, 3-(1-(2-cyanoethyl)-3-(isoquinolin-4-yl)-2,4-dioxo-1,2,3,4-tetrahydrothieno[3,2-d]pyrimidin-6-yl)-5-methoxypicolinonitrile] | 9.22 nM | 30.4 nM |  |  |  |
| O=c1[nH]c2cc(-c3c(F)cccc3Cl)ccc2c(=O)n1-c1cncc2ccccc12 [Example 162, 7-(2-Chloro-6-fluoro-phenyl)-3-(4-isoquinolyl)-1H-quinazoline-2,4-dione] |  | 392 nM |  | 344 nM |  |
| COc1cc(-c2cc3c(s2)c(=O)n(-c2cncc4cnn(C)c24)c(=O)n3CCC#N)c(Cl)cc1F (single isomer, unassigned) [Example 645, 3-[6-(2-chloro-4-fluoro-5-methoxy-phenyl)-3-(1-methylpyrazolo[4,3-c]pyridin-7-yl)-2,4-dioxo-thieno[3,2-d]pyrimidin-1-yl]propanenitrile] | 43.5 nM |  | 36 nM |  |  |
| O=c1[nH]c2cc(-c3c(Cl)cccc3CO)ccc2c(=O)n1-c1cncc2ccccc12 [Example 99] |  | 492 nM |  | 216 nM |  |
| O=c1c2sc(-c3ccccc3Cl)cc2n(Cc2cccnc2)c(=O)n1-c1cncc2ccccc12 [Example 156] |  | 171 nM |  | 167 nM |  |
| O=c1[nH]c2cc(-c3ccccc3Cl)sc2c(=O)n1-c1cncc2ccccc12 (single isomer, unassigned) [Example 150, 6-(2-chlorophenyl)-3-(isoquinolin-4-yl)thieno[3,2-d]pyrimidine-2,4(1H,3H)-dione] |  |  | 124 nM | 73 nM |  |
| O=c1[nH]c2cc(-c3c(Cl)cccc3-c3cnn4c3OCCC4)sc2c(=O)n1-c1cncc2ccccc12 [Example 528] | 7.09 nM | 7.22 nM |  |  |  |
| COc1cnc(Cl)c(-c2cc3[nH]c(=O)n(-c4cncc5ccccc45)c(=O)c3s2)c1 [Example 364, 6-(2-chloro-5-methoxypyridin-3-yl)-3-(isoquinolin-4-yl)thieno[3,2-d]pyrimidine-2,4(1H,3H)-dione] |  | 18.2 nM |  | 5.31 nM |  |
| NC(=O)c1cncc(-c2cccc(Cl)c2-c2ccc3c(=O)n(-c4cncc5ccccc45)c(=O)[nH]c3c2)c1 [Example 185] |  | 489 nM |  | < 3.01 nM |  |
| N#Cc1cc(F)c(F)cc1-c1cc2[nH]c(=O)n(-c3cncc4ccccc34)c(=O)c2s1 [Example 540] | 911 nM | > 50000 nM |  |  |  |
| COc1cc(-c2cc3c(s2)c(=O)n(-c2cncc(F)c2C)c(=O)n3CCC#N)c(Cl)cc1F [Example 1022, 3-[6-(2-chloro-4-fluoro-5-methoxy-phenyl)-3-(5-fluoro-4-methyl-3-pyridyl)-2,4-dioxo-thieno[3,2-d]pyrimidin-1-yl]propanenitrile] | 7.3 nM |  |  |  | 9.53 nM |
| COc1cc(-c2cc3c(s2)c(=O)n(-c2cncc4nn(CC(F)(F)F)c(C)c24)c(=O)n3CCC#N)c(Cl)cc1F [Example 918] | 24.3 nM | 43.1 nM |  |  |  |
| N#CCCn1c(=O)n(-c2cncc3ccccc23)c(=O)c2sc(-c3ccccc3C#N)cc21 [Example 819, 2-(1-(2-cyanoethyl)-3-(isoquinolin-4-yl)-2,4-dioxo-1,2,3,4-tetrahydrothieno[3,2-d]pyrimidin-6-yl)benzonitrile] | 10.3 nM | 11.3 nM |  |  |  |
| Cc1ccc2cncc(-n3c(=O)[nH]c4cc(-c5ccccc5Cl)sc4c3=O)c2c1 [Example 106, 6-(2-chlorophenyl)-3-(6-methylisoquinolin-4-yl)thieno[3,2-d]pyrimidine-2,4(1H,3H)-dione] |  |  |  | 23.7 nM | 73 nM |
| N#CCCn1c(=O)n(-c2cncc3nnn(C4CC4)c23)c(=O)c2sc(-c3ccccc3Cl)cc21 [Example 938] | 17.6 nM | 77 nM |  |  |  |
| O=c1[nH]c2cc(-c3ccccc3Cl)sc2c(=O)n1-c1cncc2cccnc12 [Example 133, 6-(2-chlorophenyl)-3-(1,6-naphthyridin-8-yl)thieno[3,2-d]pyrimidine-2,4(1H,3H)-dione] |  | 27.7 nM |  | 12.8 nM |  |
